Data set [1] in a line: Clearance in rat at 2.8 to 9.5 mg/kg, iv. Format: ADME, organism-based. Set-up: dose 2.8-9.5 mg/kg, route intravenous. The following applies: in vivo.
The nature of data set [2]: Volume of distribution at steady state in rat at 2.8 to 9.5 mg/kg, iv. Format: ADME, organism-based. Set-up: dose 2.8-9.5 mg/kg, route intravenous. The following applies: in vivo, read-out: Vdss.
In data set [3] the test system is Staphylococcus aureus. The experiment in a line: Antimicrobial activity against Staphylococcus aureus ATCC 29213. Format: functional.
A further data set relates to Rattus norvegicus. The experiment in a line: Dose normalized AUC in rat at 2.8 to 9.5 mg/kg, iv. In kind it is ADME, organism-based. Set-up: dose 2.8-9.5 mg/kg, route intravenous. The following applies: in vivo.
In data set [4] the test system is Staphylococcus aureus. The experiment in a line: Antimicrobial activity against Staphylococcus aureus ATCC 29213 in presence of 50% human serum. In kind it is functional.
Data set [5] can be described thus: Half life in rat at 2.8 to 9.5 mg/kg, iv. Format: ADME, organism-based. Set-up: dose 2.8-9.5 mg/kg, route intravenous. The following applies: in vivo.
Data set [6] deals with Streptococcus pneumoniae. Description: Antimicrobial activity against Streptococcus pneumoniae. Format: functional.
Data set [7] relates to Streptococcus pneumoniae. The experiment in a line: Antimicrobial activity against Streptococcus pneumoniae in presence of 50% human serum. Format: functional.
Data set [8] has as its system Staphylococcus aureus. Description: Antimicrobial activity against Staphylococcus aureus in rat thigh assessed as log reduction of CFU at 50 mg/kg, iv after 6 hrs. In kind it is functional.
For data set [9], the system named is Staphylococcus aureus. Description: Antimicrobial activity against Staphylococcus aureus at 25 mg/kg, iv.
The test system of data set [10] is Streptococcus pneumoniae. The experiment in a line: Antimicrobial activity against Streptococcus pneumoniae infected in rat lung infection model assessed as log reduction of bacterial density at 38.5 mg/kg, iv. Format: functional.
Data set [11] deals with Staphylococcus aureus. The experiment in a line: Antimicrobial activity against Staphylococcus aureus ATCC 29213 infected in Sprague-Dawley rat cyclophosphamide-induced neutropenic sepsis model assessed as host survival at 25 mg/kg, iv administered 1 hr after bacterial infection measured up to 120 hrs. The following applies: ATCC 29213, iv.
Data set [12] has as its system Staphylococcus aureus. The experiment in a line: Antimicrobial activity against Staphylococcus aureus in rat thigh assessed as log reduction of CFU at 3 mg/kg, iv after 8 hrs. Format: functional.
Data set [13] relates to Streptococcus pneumoniae. The experiment in a line: Antimicrobial activity against Streptococcus pneumoniae infected in rat lung infection model assessed as log reduction of bacterial density at 3 mg/kg, po. In kind it is functional.
The test system of data set [14] is Streptococcus pneumoniae. Description: Antimicrobial activity against Streptococcus pneumoniae infected in rat lung infection model assessed as log reduction of bacterial density at 30 mg/kg, po. In kind it is functional.
The test system of data set [15] is Staphylococcus aureus. The experiment in a line: Antimicrobial activity against Staphylococcus aureus in rat thigh assessed as log reduction of CFU at 30 mg/kg, iv after 8 hrs. In kind it is functional.

In brackets after ≈: the same amount, converted by molar mass. Activity calls are given as the source filed them. The rule behind the calls is not given here.

As a reminder, the clearance is a measure of how efficiently the substance is removed, as volume per time. A higher clearance goes with a high capacity for elimination. In general, MIC refers to the least concentration at which growth counts as inhibited. By half-life is commonly meant the time in which the quantity being followed falls by half.

In data set [1], `CCNC(=O)Nc1nc2cc(-c3cccnc3)cc(-c3ncccc3F)c2[nH]1` registered a clearance of 14 mL/min/kg. In data set [2], the Vd turned out to be 1.6 L/kg. For the same compound, the MIC in the data set with Staphylococcus aureus [3] is 0.031 µg/mL (≈ 0.0824 µM); in the data set with Staphylococcus aureus [4] it was 0.625 µg/mL; against Streptococcus pneumoniae [6] it was 0.004 µg/mL (≈ 0.0106 µM). The same compound yielded an AUC/dose in the data set with Rattus norvegicus of 1.1 µg·h/mL. For the same compound, the half-life in data set [5] is 42 min. Also, the “fold change (FC)” value with Streptococcus pneumoniae [7] is reported as 20. Besides, the FC with Staphylococcus aureus [8] turned out to be 1.5.

In the case of `CCNC(=O)Nc1nc2cc(-c3cccnc3)cc(-c3ccccn3)c2[nH]1`, the clearance in data set [1] was 12.5 mL/min/kg. Besides, the Vd in data set [2] came to 1.1 L/kg. Moreover, the results for the MIC against Staphylococcus aureus [3], in the data set on Staphylococcus aureus [4] and against Streptococcus pneumoniae [6] were 0.047 µg/mL (≈ 0.131 µM), 2 µg/mL and 0.004 µg/mL (≈ 0.0112 µM), respectively. For the same compound, the outcome in the data set with Staphylococcus aureus [9] was Active. The same compound gave an AUC/dose with Rattus norvegicus of 1.6 µg·h/mL. The same compound had a half-life in data set [5] of 126 min. Besides, the FC with Streptococcus pneumoniae [10] is reported as 3. In addition, in the data set with Streptococcus pneumoniae [7], the “fold change (FC)” value was determined as 43. In addition, the survival at 25 mg/kg with Staphylococcus aureus [11] was 20%.

Regarding `CCNC(=O)Nc1nc2cc(-c3ccc(CN(C)C)nc3)cc(-c3ncccn3)c2[nH]1`, the MIC came to 0.5 µg/mL (≈ 1.2 µM) in the data set on Staphylococcus aureus [3] and 0.125 µg/mL with Staphylococcus aureus [4].

On to `CCNC(=O)Nc1nc2cc(-c3cnc4ccccc4c3)cc(-c3ncccn3)c2[nH]1`, for which the values for the MIC against Staphylococcus aureus [3] and with Staphylococcus aureus [4] were 0.032 µg/mL (≈ 0.0782 µM) and 2 µg/mL, respectively.

`CCNC(=O)Nc1nc2cc(-c3ccc[n+]([O-])c3)cc(-c3ncccc3F)c2[nH]1`: the MIC in the data set with Staphylococcus aureus [3] was 0.5 µg/mL (≈ 1.27 µM); with Staphylococcus aureus [4], 0.5 µg/mL.

`CCNC(=O)Nc1nc2cc(-c3cnc(C(C)(C)O)nc3)cc(-c3ncccc3F)c2[nH]1` displayed a clearance in data set [1] of 23 mL/min/kg. For the same compound, the FC amounted to 1.7 in the data set with Staphylococcus aureus [12], 3.7 in the data set with Streptococcus pneumoniae [13], 5.8 with Streptococcus pneumoniae [14] and 2.1 in the data set with Staphylococcus aureus [15]. Moreover, the Vd in data set [2] came out at 2.1 L/kg. Moreover, the MIC in the data set on Staphylococcus aureus [3] was 0.032 µg/mL (≈ 0.0735 µM); in the data set on Staphylococcus aureus [4], 0.25 µg/mL; with Streptococcus pneumoniae [6] it was 0.004 µg/mL (≈ 0.00919 µM). Moreover, in the data set on Rattus norvegicus, the AUC/dose turned out to be 0.8 µg·h/mL. Further, the half-life in [5] is 72 min. For the same compound, in the data set on Streptococcus pneumoniae [7], the “fold change (FC)” value worked out at 8.

As for `CCNC(=O)Nc1nc2cc(-c3cnc(CN4CCOCC4)nc3)cc(-c3ncccc3F)c2[nH]1`, the figures for the minimal inhibitory concentration (MIC) in the data set on Staphylococcus aureus [3] and in the data set with Staphylococcus aureus [4] were 0.125 µg/mL (≈ 0.262 µM) and 0.125 µg/mL, respectively.

Turning to `CCNC(=O)Nc1nc2cc(-c3ccc(N)nc3)cc(-c3ncccn3)c2[nH]1`, the minimum inhibitory concentration (MIC) in the data set with Staphylococcus aureus [3] worked out at 0.125 µg/mL (≈ 0.334 µM); with Staphylococcus aureus [4], 0.25 µg/mL.

Take `CCNC(=O)Nc1nc2cc(-c3cccnc3)cc(-n3cccn3)c2[nH]1`: the MIC against Staphylococcus aureus [3] was determined as 0.125 µg/mL (≈ 0.36 µM); in the data set on Staphylococcus aureus [4] it was 4 µg/mL.

In the case of `CC(=O)NC[C@H]1CN(c2ccc(N3CCOCC3)c(F)c2)C(=O)O1` [LINEZOLID], in [1], the clearance amounted to 14.5 mL/min/kg. Besides, the result in the data set with Staphylococcus aureus [12] was inactive. Further, the Vd in [2] worked out at 1 L/kg. Moreover, the MIC against Staphylococcus aureus [3] worked out at 1.56 µg/mL (≈ 4.62 µM); against Streptococcus pneumoniae [6] it was 0.4 µg/mL (≈ 1.19 µM). The FC in the data set with Streptococcus pneumoniae [13] is given as 0.8; in the data set with Streptococcus pneumoniae [14] it was 4.5; in the data set on Staphylococcus aureus [15], 1.4. The AUC/dose in the data set on Rattus norvegicus amounted to 1.1 µg·h/mL. The compound further showed a half-life in [5] of 42 min. Besides, the “fold change (FC)” value in the data set with Streptococcus pneumoniae [7] came out at 1. The survival at 25 mg/kg with Staphylococcus aureus [11] came to 30%.

For `CCNC(=O)Nc1nc2cc(-c3ccc(C(N)=O)nc3)cc(-c3ncccn3)c2[nH]1`, the values for the MIC in the data set with Staphylococcus aureus [3] and in the data set on Staphylococcus aureus [4] were 0.064 µg/mL (≈ 0.159 µM) and 0.25 µg/mL, respectively.

Source of the values: ChEMBL document CHEMBL3259685, “Successful application of serum shift prediction models to the design of dual targeting inhibitors of bacterial gyrase B and topoisomerase IV with improved in vivo efficacy” (Bioorg Med Chem Lett, 2014).
